Measured values: patent US7348329B2, “Therapeutic agent for keratoconjunctival disorder” (Santen Pharmaceutical Co., Ltd., priority 2003, dated 2008)

Tested on: corneal damage in corneal disorder models
Assay: Test for therapeutic effect on corneal damage (corneal disorder model, exorbital lacrimal gland removed)
Type: in vivo, male SD rats
Details: for Effect on corneal damage (in words): male SD rat corneal disorder model; for Effect on corneal damage (in words) / Improvement ratio (%): 0.02% eye drops 6 times a day for 7 days; for Improvement ratio (%) / Mean value of total scores (fluorescein staining of upper, middle and lower parts of the cornea): male SD rat; for Improvement ratio (%): {(control)-(compound)}/{(control)-(normal eye)}x100, control = 0%; for Mean value of total scores (fluorescein staining of upper, middle and lower parts of the cornea): 0.02% in physiological saline instilled into both eyes 6 times a day for 7 days, scored 7 days after start, mean of 8 eyes, each part scored 0-3
Procedure: Test for Therapeutic Effect on Corneal Damage
Using male SD rats, in accordance with the method of Fujihara et al. (Invest. Ophthalmol. Vis. Sci. 42 (1): 96-100 (2001)), corneal disorder models were produced. After the production of the corneal disorder models, the improvement ratio of a corneal damage was evaluated according to the method of Murakami et al. (journal of the eye 21 (1): 87-90 (2004))
A male SD rat was systemically anesthetized by an administration of Nembutal. Subsequently the exorbital lacrimal gland was removed and a corneal damage was induced over a period of 2 months.
Then, 5-[4-[[3-methyl-4-oxo-3,4-dihydro-2-quinazolinyl]methoxy]phenylmethyl]thiazolidine-2,4-dione (Compound A) or N-[(4-methoxyphenoxy)carbonyl]-N-[[4-[2-(5-methyl-2-phenyl-4-oxazolyl)ethoxy]phenyl]methyl]glycine (Compound B) was administered as follows.
A physiological saline solution of Compound A (0.02%) was instilled into both eyes 6 times a day for 7 days (one group consisting of 4 animals, 8 eyes).
A physiological saline solution of Compound B (0.02%) was instilled into both eyes 6 times a day for 7 days (one group consisting of 4 animals, 8 eyes).
In a control group, physiological saline was instilled into both eyes 6 times a day for 7 days (one group consisting of 4 animals, 8 eyes).
Seven days after the start of instillation, the damaged parts of the cornea were stained with fluorescein. For each of the upper, middle and lower parts of the cornea, the degree of fluorescein staining was evaluated by scoring according to the criteria shown below and the mean value of the total scores for each of the above-mentioned parts was calculated.
Further, the mean value of the total scores for the normal eye was also calculated.
• 0: No punctate staining • 1: Scattered staining (punctate, separated staining) • 2: Moderate staining(a part of punctate staining being adjacent) • 3: Heavy staining (punctate, barely separated staining) (Results)
By taking the mean value of the total scores for the control group (physiological saline) as a reference (improvement ratio: 0%), the calculation was carried out according to the calculation formula shown below. Each of the improvement ratios for the Compound A administered group and the Compound B administered group are shown in Table 1 and Table 2. The mean value of the scores is a mean of those of 8 cases, respectively. Improvement ratio (%)={(control)−(the present compound)}/damage degree×100 Damage degree=(control)−(normal eye)

Row | SMILES | Effect on corneal damage (in words) | Improvement ratio (%) | Mean value of total scores (fluorescein staining of upper, middle and lower parts of the cornea)
1 | Cn1c(COc2ccc(CC3SC(=O)NC3=O)cc2)nc2ccccc2c1=O (stereo not drawn) [Compound A, 5-[4-[[3-methyl-4-oxo-3,4-dihydro-2-quinazolinyl]methoxy]phenylmethyl]thiazolidine-2,4-dione] | significantly improve a corneal damage | 40.0 | 4.8
2 | COc1ccc(OC(=O)N(CC(=O)O)Cc2ccc(OCCc3nc(-c4ccccc4)oc3C)cc2)cc1 [Compound B, N-[(4-methoxyphenoxy)carbonyl]-N-[[4-[2-(5-methyl-2-phenyl-4-oxazolyl)ethoxy]phenyl]methyl]glycine] | significantly improve a corneal damage | 42.3 | 5.2
